We go through 2 compounds from patent US12589092B2, “Polycyclic compound acting as kinase inhibitor” (HANGZHOU INNOGATE PHARMA CO., LTD., priority 2020, dated 2026).

What is called IC50 is the point on the concentration scale where inhibition reaches its midpoint. One may read the AUC(0-t) as exposure summed from dosing to a finite time, without extrapolation to infinity. The term Cmax denotes the maximum level reached in the sampled fluid or tissue. One may read the Tmax as the time at which the peak concentration occurs. As usually defined, the half-life is how long it takes for the measured level to halve. A higher half-life goes with slow decline.

Where two headings read alike, the source gives them in different places. Where only a bound is given, the exact number is not on record here.

In one data set the target is CDK5/p35NCK (Homo sapiens, UniProt Q00535). The experiment in a line: CDK5 kinase activity inhibition assay (ADP-Glo). The format is biochemical. Conditions: read-out: CDK5 kinase inhibitory activity (IC50). The protocol:
(§1) 3) CDK5, CDK9 and CDK16 Kinase Activity Inhibition Assay
(§2) CDK5/p35NCK, CDK9/CycT1 and CDK16/CycY protein kinase activities were determined using the ADP-Glo Kinase Assay. Dilute the positive compound and the test compound (10 mM stock solution) 25-fold with 100% DMSO, make a 4-fold serial dilution in a 96-well dilution plate, and add 1 μL of the compound to 49 μL of kinase reaction buffer (1 mM Tris, 20 mM MgCl2, 0.10% BSA and 0.5 mM DTT) on a microplate shaker for 20 min. Transfer 2 μL of 2× kinase to the 384-well reaction plate, add 1 μL of the test compound to the 384-well reaction plate, centrifuge at 1000 rpm/min for 1 min, and incubate at 25° C. for 10 min. Transfer 1 μL of the 4× substrate mix to the 384-well reaction plate, centrifuge at 1000 rpm/min for 1 min, and incubate at 25° C. for 60 min. Transfer 4 μL of ADP-Glo to the 384-well reaction plate to centrifuge at 1000 rpm/min for 1 min, and incubate at 25° C. for 40 min. Transfer 8 μL of detection solution to the 384-well reaction plate to centrifuge at 1000 rpm/min for 1 min, and incubate at 25° C. for 40 min. The RLU (Relative luminescence unit) signal was read using a Biotek multifunctional plate reader. Signal intensity is used to characterize the degree of kinase activity. Compound inhibition rate data: % inhibition rate=[1−(compound mean RLU−positive control mean RLU)/(negative control mean RLU−positive control mean RLU)]*100. Taking the log value of the concentration as the X axis and the percentage inhibition rate as the Y axis, the log(inhibitor) vs. response-Variable slope of the analysis software GraphPad Prism 5 was used to fit the dose-response curve to obtain the IC50 value of each compound on the enzyme activity.
(ADP-Glo first removes unused ATP, then detects ADP through luciferase.)

Another data set has as its target CDK9/CycT1 (Homo sapiens, UniProt P50750). The experiment in a line: CDK9 kinase activity inhibition assay (ADP-Glo). Format: biochemical. Conditions: read-out: CDK9 kinase inhibitory activity (IC50). The protocol: as §1, §2
The target in another data set is TRKA (Homo sapiens, UniProt P04629). The experiment in a line: TRKA kinase activity inhibition assay (caliper mobility shift). Format: biochemical. The protocol: 2) TRKA Kinase Activity Inhibition Assay
TRKA protein kinase activity was measured by caliper mobility shift assay. Compounds were dissolved in DMSO to make up 10 mM stock solutions. Prepare 1× kinase reaction buffer to serially dilute compounds. 250 nL 100× final concentration of the test compounds were transferred to destination plate 3573 by dispenser Echo 550. Prepare a 2.5× final concentration of kinase solution with 1× kinase buffer. Add 10 μL of 2.5× final kinase solution to compound wells and positive control wells; add 10 μL of 1× kinase buffer to negative control wells. Centrifuge at 1000 rpm for 30 s, shake and mix the reaction plate and incubate at room temperature for 10 min. Prepare a mixture of ATP and kinase substrate solution at 5/3× final concentration with 1× kinase buffer. The reaction was initiated by adding 15 μL of the mixed solution. Centrifuge the 384-well plate at 1000 rpm for 30 s, shake and mix well, and incubate at room temperature for the corresponding time. Add 30 μL of stop solution to stop the kinase reaction, centrifuge at 1000 rpm for 30 s, mix by shaking, and read the conversion rate data with Caliper EZ Reader. Convert conversion to inhibition data (% inhibition=(max DMSO well conversion−sample well conversion)/(max DMSO well conversion−min negative control conversion)*100). Wherein max refers to the conversion rate of the DMSO control, and min refers to the conversion rate of the non-enzymatic control. Draw a curve with the concentration and inhibition rate of the compound as abscissa and ordinate, and use XLFit excel add-in version 4.3.1 software to fit the curve and calculate IC50.

In the next data set the target is CDK4/CycD3 (Homo sapiens, UniProt P11802). Put plainly: CDK4 kinase activity inhibition assay (caliper mobility shift). Format: biochemical. Conditions: CDK4/CycD3 10 nM, ATP 221 μM; read-out: CDK4 kinase inhibitory activity (IC50). The protocol: (§3) 1) CDK2, CDK4 and CDK6 Kinase Activity Inhibition Assay
(§4) In vitro enzymatic activity of the CDK isoforms CDK2/CycA2, CDK4/CycD3 and CDK6/cycD3 were measured using caliper mobility shift assay. Dissolve the compounds in DMSO and dilute them with corresponding kinase buffer (CDK2/CycA2 and CDK6/CycD3 were assayed with buffer conditions of 50 mM HEPES (pH 7.5), 10 mM MgCl2, 0.0015% Brij-35 and 2 mM dithiothreitol; CDK4/CycD3 was assayed with buffer condition of 20 mM HEPES (pH 7.5), 10 mM MgCl2, 0.01% Triton X-100 and 2 mM dithiothreitol). Add 5 μl of compound (10% DMSO) with 5 times the final concentration of the reaction to a 384-well plate. […] Collect conversion data on Caliper EZ Reader II (Caliper Life Sciences). Convert the conversion rate into inhibition rate data (% inhibition rate=(max−conversion rate)/(max−min)*100). […] Draw a curve with the concentration and inhibition rate of the compound as abscissa and ordinate, and use XLFit excel add-in version 4.3.1 software to fit the curve and calculate IC50.

The target of the next data set is CDK16/CycY (Homo sapiens, UniProt Q00536). Put plainly: CDK16 kinase activity inhibition assay (ADP-Glo). Format: biochemical. Conditions: read-out: CDK16 kinase inhibitory activity (IC50). The method, then: as §1, §2
In another data set the target is CDK6/cycD3 (Homo sapiens, UniProt Q00534). Put plainly: CDK6 kinase activity inhibition assay (caliper mobility shift). The format is biochemical. Conditions: CDK6/cycD3 15 nM, ATP 800 μM; read-out: CDK6 kinase inhibitory activity (IC50). The protocol: as §3, §4
The nature of another data set: in vivo. Conditions: male, SD, rat, po, 3 mg/kg.
The target in a further data set is CDK2/CycA2 (Homo sapiens, UniProt P24941). The experiment in a line: CDK2 kinase activity inhibition assay (caliper mobility shift). The format is biochemical. Conditions: CDK2/CycA2 12 nM, ATP 39 μM; read-out: CDK2 kinase inhibitory activity (IC50). The method, then:
as §3, §4

A short description of data set [1]: Pharmacokinetic study in rats (intragastrical administration, plasma LC-MS/MS). Conditions: male, SD, rat, po, 3 mg/kg.
Experimental: (§5) Instruments: XEVO TQ-S LC/MS instrument produced by Waters. All measurement data is collected and processed by Masslynx V4.1 software, and the data is calculated and processed by Microsoft Excel. Using WinNonLin 8.0 software, the statistical moment method was used to calculate the pharmacokinetic parameters. Mainly include kinetic parameters Tmax, T1/2, Cmax, AUClast etc. Column: ACQUITY UPLC BEH C18 (2.1 mm×50 mm, 1.7 μm); column temperature 40° C.; mobile phase A is water (0.1% formic acid), mobile phase B is acetonitrile, flow rate is 0.350 ml/min, gradient elution is adopted, the elution gradient is 0.50 min: 10% B; 1.50 min: 10% B; 2.30 min: 95% B; 2.31 min: 10% B; 3.00 min: stop. Injection volume: 5 μL.
(§6) Animals: 3 male SD rats with a weight range of 200-220 g. After purchase, they will be kept in the laboratory of the Experimental Animal Center for 2 days and then used. They will be fasted for 12 hours predose and 4 hours after dosing. Drinking water is free during the test. After the rats were gavage, blood samples were taken according to the established time point.
(§7) Solvent: 0.5% Methylcellulose (aqueous solution containing 0.4% Tween 80 and 1% ethanol). Preparation of the solution for intragastrical administration: accurately weigh the compound, add it to the solvent, and use ultrasound at room temperature for 5 minutes to completely dissolve the drug, and prepare a 0.3 mg/ml medicinal solution.
(§8) A single administration was also used to study the pharmacokinetics of the drug sample in rats.
(§9) After intragastrical administration, blood was taken from the orbit at 0.25, 0.5, 1, 2, 4, 9, 12 and 24 hours, and placed in a plastic centrifuge tube pretreated with sodium heparin. After centrifugation, the supernatant plasma was used for LC-MS/MS analysis.
(§10) Accurately weigh the compounds to prepare different concentrations, perform quantitative analysis on mass spectrometry to establish a standard curve, and then test the concentration of the above-mentioned compound in the plasma to obtain the compound concentration at different time points. All measurement data are collected and processed by relevant software, and the statistical moment method is used to calculate the pharmacokinetic parameters (mainly including kinetic parameters Tmax, T1/2, Cmax, AUClast etc).

Chain of CDK16/CycY (Q00536 whole entry): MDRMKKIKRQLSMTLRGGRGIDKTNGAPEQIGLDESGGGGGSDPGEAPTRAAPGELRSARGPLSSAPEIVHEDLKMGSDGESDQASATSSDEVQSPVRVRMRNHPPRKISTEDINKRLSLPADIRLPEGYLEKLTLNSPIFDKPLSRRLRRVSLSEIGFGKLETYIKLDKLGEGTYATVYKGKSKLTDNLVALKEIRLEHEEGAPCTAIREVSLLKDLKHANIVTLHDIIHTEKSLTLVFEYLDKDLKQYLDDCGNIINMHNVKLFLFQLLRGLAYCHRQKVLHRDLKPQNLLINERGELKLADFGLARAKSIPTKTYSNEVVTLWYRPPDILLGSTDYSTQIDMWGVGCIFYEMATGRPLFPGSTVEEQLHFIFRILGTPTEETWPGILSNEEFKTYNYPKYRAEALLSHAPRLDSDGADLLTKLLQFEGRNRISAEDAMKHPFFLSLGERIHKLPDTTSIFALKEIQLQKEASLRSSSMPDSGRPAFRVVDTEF
Chain of CDK16/CycY (Q8ND76 whole entry partner): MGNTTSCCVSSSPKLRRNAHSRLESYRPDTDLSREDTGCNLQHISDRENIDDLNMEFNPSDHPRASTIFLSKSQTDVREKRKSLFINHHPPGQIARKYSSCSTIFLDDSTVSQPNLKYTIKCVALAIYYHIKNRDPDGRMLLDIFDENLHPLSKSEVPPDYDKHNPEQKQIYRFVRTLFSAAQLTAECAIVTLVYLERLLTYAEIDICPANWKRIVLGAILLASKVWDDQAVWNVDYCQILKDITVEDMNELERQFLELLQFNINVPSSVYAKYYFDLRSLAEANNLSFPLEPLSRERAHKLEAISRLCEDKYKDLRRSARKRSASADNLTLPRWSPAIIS
Chain of CDK5/p35NCK (Q00535 whole entry): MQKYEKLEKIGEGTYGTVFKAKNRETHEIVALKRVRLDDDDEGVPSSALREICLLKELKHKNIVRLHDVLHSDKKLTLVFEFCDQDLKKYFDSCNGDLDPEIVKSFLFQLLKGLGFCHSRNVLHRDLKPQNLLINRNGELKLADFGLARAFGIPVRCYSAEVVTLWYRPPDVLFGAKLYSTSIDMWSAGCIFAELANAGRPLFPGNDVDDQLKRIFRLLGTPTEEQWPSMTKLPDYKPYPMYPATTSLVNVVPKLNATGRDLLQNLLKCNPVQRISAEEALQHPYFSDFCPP
Chain of CDK5/p35NCK (Q15078 whole entry partner): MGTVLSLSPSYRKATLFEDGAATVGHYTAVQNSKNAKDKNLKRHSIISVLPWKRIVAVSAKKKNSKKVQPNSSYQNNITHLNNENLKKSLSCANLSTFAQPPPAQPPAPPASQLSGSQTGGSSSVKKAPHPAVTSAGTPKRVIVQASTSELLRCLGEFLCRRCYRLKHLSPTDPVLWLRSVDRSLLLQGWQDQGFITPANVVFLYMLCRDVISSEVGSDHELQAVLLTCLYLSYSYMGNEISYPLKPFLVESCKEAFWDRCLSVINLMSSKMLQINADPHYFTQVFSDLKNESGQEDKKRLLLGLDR
Chain of CDK4/CycD3 (P11802 whole entry, canonical isoform): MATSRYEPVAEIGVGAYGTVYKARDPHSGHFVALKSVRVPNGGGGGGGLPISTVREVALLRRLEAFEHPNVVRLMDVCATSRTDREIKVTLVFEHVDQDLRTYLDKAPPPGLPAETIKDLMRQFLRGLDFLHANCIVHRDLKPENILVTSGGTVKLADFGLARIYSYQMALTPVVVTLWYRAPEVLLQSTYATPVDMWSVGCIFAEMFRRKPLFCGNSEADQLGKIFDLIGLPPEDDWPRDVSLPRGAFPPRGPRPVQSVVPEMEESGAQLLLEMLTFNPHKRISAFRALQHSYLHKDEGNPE
Chain of CDK4/CycD3 (P30281 whole entry partner, canonical isoform): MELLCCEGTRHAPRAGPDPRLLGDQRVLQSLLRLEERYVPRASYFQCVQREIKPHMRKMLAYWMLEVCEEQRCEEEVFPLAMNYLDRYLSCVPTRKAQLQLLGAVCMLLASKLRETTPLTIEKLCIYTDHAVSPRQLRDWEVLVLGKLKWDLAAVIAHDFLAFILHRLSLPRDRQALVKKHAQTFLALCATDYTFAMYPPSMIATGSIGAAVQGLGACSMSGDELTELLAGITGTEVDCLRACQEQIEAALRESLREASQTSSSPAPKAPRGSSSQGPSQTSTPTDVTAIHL
Chain of TRKA (P04629 33-796): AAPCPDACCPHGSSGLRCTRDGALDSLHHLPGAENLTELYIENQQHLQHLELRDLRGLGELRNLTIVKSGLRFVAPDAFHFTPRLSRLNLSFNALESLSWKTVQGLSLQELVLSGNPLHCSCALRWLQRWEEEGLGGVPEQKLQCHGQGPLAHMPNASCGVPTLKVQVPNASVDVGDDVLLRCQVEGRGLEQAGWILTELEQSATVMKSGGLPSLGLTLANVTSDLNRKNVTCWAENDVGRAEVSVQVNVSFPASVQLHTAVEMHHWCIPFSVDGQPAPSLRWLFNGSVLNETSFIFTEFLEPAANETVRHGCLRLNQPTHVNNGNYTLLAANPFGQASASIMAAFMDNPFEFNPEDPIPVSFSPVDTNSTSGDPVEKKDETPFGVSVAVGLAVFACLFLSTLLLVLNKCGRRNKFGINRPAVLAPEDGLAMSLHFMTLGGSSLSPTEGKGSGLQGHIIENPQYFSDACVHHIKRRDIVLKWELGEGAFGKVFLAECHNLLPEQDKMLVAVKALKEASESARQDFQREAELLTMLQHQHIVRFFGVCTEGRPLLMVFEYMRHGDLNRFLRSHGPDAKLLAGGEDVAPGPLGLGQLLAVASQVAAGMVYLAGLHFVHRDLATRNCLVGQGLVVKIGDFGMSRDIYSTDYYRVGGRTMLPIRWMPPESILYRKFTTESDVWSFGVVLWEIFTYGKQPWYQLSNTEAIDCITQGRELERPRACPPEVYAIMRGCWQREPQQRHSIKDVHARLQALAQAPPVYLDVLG
Chain of CDK9/CycT1 (P50750 whole entry): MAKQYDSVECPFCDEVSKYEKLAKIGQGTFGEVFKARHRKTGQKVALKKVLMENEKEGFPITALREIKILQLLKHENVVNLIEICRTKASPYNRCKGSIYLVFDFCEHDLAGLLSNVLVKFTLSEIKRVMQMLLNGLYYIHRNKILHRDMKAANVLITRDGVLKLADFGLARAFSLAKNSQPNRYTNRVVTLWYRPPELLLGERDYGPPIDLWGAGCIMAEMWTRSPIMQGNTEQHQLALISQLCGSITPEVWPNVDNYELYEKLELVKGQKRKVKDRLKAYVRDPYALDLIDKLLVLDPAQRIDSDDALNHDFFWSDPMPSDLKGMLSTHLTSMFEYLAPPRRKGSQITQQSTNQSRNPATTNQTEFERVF
Chain of CDK9/CycT1 (O60563 whole entry partner): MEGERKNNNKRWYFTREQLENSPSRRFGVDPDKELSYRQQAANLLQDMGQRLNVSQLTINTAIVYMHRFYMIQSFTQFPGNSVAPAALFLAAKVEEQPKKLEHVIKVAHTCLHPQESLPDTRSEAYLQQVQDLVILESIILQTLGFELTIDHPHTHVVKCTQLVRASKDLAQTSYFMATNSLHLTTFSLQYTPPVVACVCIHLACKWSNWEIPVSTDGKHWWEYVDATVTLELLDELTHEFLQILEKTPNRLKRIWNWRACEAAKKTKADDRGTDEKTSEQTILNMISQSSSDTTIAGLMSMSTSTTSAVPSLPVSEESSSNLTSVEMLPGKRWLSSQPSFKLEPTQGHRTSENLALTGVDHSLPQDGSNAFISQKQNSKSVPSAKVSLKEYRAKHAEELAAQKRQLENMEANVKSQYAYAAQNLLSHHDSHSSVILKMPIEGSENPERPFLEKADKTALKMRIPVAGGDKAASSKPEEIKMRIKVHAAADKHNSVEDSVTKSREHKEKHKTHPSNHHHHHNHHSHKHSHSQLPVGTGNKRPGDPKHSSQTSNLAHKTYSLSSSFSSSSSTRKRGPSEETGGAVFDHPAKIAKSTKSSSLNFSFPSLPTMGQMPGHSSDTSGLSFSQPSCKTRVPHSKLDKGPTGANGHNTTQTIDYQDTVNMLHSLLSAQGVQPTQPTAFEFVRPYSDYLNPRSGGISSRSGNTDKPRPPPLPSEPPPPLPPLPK
Chain of CDK6/cycD3 (Q00534 whole entry): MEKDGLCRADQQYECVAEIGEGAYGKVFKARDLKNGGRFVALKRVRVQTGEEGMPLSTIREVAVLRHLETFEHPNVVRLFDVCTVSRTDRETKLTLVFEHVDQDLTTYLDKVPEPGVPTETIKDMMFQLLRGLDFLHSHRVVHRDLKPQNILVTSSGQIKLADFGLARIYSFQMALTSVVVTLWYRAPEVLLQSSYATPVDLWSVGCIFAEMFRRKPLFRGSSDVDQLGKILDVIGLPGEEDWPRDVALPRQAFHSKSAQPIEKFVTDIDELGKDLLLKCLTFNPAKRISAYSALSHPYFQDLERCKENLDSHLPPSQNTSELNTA
Chain of CDK6/cycD3 (P30281 whole entry partner): as the sequence (P30281 whole entry partner, canonical isoform) above
Experimental for in vivo: as §5, §6, §7, §8, §9, §10

As for `CC(=O)c1c(C)c2cnc(Nc3ccc4c(c3)OC[C@@H]3CN(C5CCN(C)CC5)CCN43)nc2n(C2CCCC2)c1=O` [Compound 2S], the 50% inhibitory concentration (IC50) on CDK5/p35NCK is < 50 nM; at CDK9/CycT1, < 20 nM; on TRKA, < 10 nM; on CDK4/CycD3, < 10 nM; on CDK16/CycY, < 100 nM; at CDK6/cycD3, < 10 nM. For the same compound, the IC50 on CDK2/CycA2 is < 100 nM. Also, in the data set “in vivo”, the AUC(0-t) was 1910 ng·h/mL. Further, the peak concentration (Cmax) in the data set “in vivo” turned out to be 114 ng/mL. For the same compound, in “in vivo”, the Tmax worked out at 13.3 h. Further, in data set [1], the half-life was > 12 h.

Regarding `CC(=O)c1c(C)c2cnc(Nc3ccc4c(c3)OC[C@@H]3CN(C5CN(C)C5)CCN43)nc2n(C2CCCC2)c1=O` [Compound 7S], the IC50 at CDK5/p35NCK is < 100 nM; on CDK9/CycT1 it was < 50 nM; at TRKA (read-out: TRKA kinase inhibitory activity (IC50)), < 10 nM; at CDK4/CycD3, < 10 nM; on CDK16/CycY it was < 100 nM; on CDK6/cycD3, < 10 nM. Further, on CDK2/CycA2, the IC50 is < 100 nM. In [1], this compound returned an exposure AUC(0-t) of 1940 ng·h/mL. In [1], the Cmax was 133 ng/mL. In addition, the Tmax in data set [1] amounted to 9.33 h. In data set [1], this compound gave a half-life of 3.19 h.
